Blank lines part the entries; values can stand above or below the compound they belong to.
Columns and labels:
[1] = biological target: T1, PAR1 (Cavia porcellus, UniProt A0A286XH07); experiment: Activation of guinea pig platelets; format: cell-based
T1 sequence (A0A286XH07 24-426): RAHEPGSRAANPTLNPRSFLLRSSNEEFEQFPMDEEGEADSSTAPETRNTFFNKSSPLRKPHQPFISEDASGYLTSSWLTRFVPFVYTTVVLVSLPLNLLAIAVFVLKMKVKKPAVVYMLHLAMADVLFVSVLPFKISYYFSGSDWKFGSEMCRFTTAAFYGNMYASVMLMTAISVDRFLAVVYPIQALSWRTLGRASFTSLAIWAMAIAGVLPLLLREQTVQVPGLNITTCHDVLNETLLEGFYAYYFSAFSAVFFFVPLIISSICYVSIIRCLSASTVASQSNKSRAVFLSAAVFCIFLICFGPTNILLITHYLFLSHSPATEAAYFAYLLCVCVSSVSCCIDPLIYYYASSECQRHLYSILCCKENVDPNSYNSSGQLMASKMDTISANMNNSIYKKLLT

[2] = system: guinea pigs; experiment: Guinea pig carotid artery FeCl3 injury arterial thrombosis model; format: in vivo; settings: clopidogrel 1 mg/kg PO 4 h prior alone, 90 min period, n=5
[3] = human, ref Kosoglou, 2012 #2596, cited from earlier work

- EC50 [1]: 2500 nM
Compound: CC(C)C[C@H](NC(=O)[C@H](CC(C)C)NC(=O)[C@H](Cc1ccccc1)NC(=O)[C@@H](N)CO)C(=O)N[C@@H](CCCN=C(N)N)C(=O)N[C@@H](CC(N)=O)C(=O)O [SFLLRN]

Compound: COC(=O)[C@H](c1ccccc1Cl)N1CCc2sccc2C1 [clopidogrel]
- Protection against arterial occlusion when used alone [2]: non-significant protection

Compound: CCOC(=O)N[C@@H]1CC[C@@H]2[C@@H](C1)C[C@H]1C(=O)O[C@H](C)[C@H]1[C@H]2/C=C/c1ccc(-c2cccc(F)c2)cn1 [vorapaxar]
- Pharmacodynamic (PD) half life / duration of inhibition of platelet function ([3]; single loading dose): up to 3 weeks
- Plasma half-life [3]: 120 to 264 h
